Legend:
AAC(6′)-Ii [1] = biological target: T1, AAC(6′)-Ii (Enterococcus faecium, UniProt Q47764); assay: AAC6′-Ii inhibition assay (DTDP-coupled, varying AcCoA); type: biochemical; parameters: made in house; host or cells: Escherichia coli BL21; details: for type of inhibition (in words): versus acetylCoA; for Vm: maximal velocity from the fit of the inhibition assay; for enhanced inhibition of AAC(6′)-Ii as compared to lysine-CoA conjugates (3a and 3b): relative to 3a and 3b
Procedure: AAC(6′)-Ii was obtained using a previously described protocol (Wright and Ladak, 1997). The Escherichia coli strain BL21 was transformed with a pET22b expression plasmid containing the AAC(6′)-Ii gene. The bacteria were grown in Luria-Bertani (LB) media at 37° C. containing ampicillin (100 μg/mL). Expression of the protein was induced using isopropyl-β-D-thiogalactoside (IPTG). After harvesting the cells by centrifugation and washing them with a 0.85% NaCl solution, the cells were lysed by sonication. AAC(6′)-Ii was purified in a two-step process: firstly, the lysate was ran through a Q-Sepharose ion exchange column (GE Healthsciences), and secondly the AAC(6′)-Ii containing fractions were further purified using a Gentamicin agarose affinity column (BioRad).
Enzyme activity was monitored using a procedure described elsewhere (Williams and Northrop, 1978). Thus, reaction mixtures in HEPES (1 mM, pH=7.5) and containing 4,4′-dithiodipyridine (DTDP, 2 mM), aminoglycoside (200 μM), and AAC(6′)-Ii (25 μg/mL) were prepared with varying concentrations of AcCoA. Reaction volumes were typically 400 μl. The assay mixtures were preincubated for 1 min at 37° C. The initial rates V were fit to Equation S1, where [S] is the concentration of AcCoA, Km is the Michaelis-Menten constant, and Vm is the maximal velocity: [S]/V=[S]/Vm+Km/Vm (S1)
The initial reaction velocity (steady-state) in the presence of inhibitors was measured as described above. The initial rates obtained at various concentrations of inhibitor were fit to Equation S2 for competitive inhibition, to Equation S3 for […] inhibition, or to Equation S4 for uncompetitive inhibition, where [I] is the concentration of inhibitor and Ki is the inhibition constant: [S]/V=[S]/Vm+(1+[I]/Ki)Km/Vm (S2) [S]/V=(1+[I]/Ki)[S]/Vm+Km/Vm (S3) [S]/V=(1+[I]/Ki)[S]/Vm+(1+[I]/Ki)Km/Vm (S4)

AAC(6′)-Iy = biological target: T2, AAC(6′)-Iy (Salmonella enteritidis, UniProt Q9R381); assay: Inhibition assay of AAC(6′)-Iy; type: biochemical, Salmonella enterica; details: for Ki: Table 2
T2 sequence (Q9R381 1-145): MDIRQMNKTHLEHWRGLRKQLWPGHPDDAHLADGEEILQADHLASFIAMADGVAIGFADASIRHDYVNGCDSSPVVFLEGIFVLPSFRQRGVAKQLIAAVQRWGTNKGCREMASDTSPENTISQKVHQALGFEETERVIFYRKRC

AAC(6′)-Ii [2] = biological target: T1, AAC(6′)-Ii; details: read-out: Michaelis-Menten constant (Km); acetyl CoA as substrate of AAC(6′)-Ii; cited from earlier work
[3] = Ki (μM), Table 1, inhibition of AAC(6′)-Ii, varying AcCoA
[4] = inhibition constant (Ki), running text b80

T1 sequence (Q47764 1-182): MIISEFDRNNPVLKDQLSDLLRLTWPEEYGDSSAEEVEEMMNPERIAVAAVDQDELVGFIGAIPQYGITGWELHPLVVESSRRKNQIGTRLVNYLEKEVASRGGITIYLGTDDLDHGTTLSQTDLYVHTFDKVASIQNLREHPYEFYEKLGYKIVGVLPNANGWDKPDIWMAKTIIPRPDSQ

SMILES | Ki values (in words) (AAC(6′)-Ii [1]) | Ki (AAC(6′)-Ii [1]; AAC(6′)-Ii [Ki, (μM)], Table 2) [µM] | type of inhibition (in words) (AAC(6′)-Ii [1]) | Ki values (in words) (AAC(6′)-Iy) | Ki (AAC(6′)-Iy) [µM] | inhibition of AAC(6′)-Ii (in words) (AAC(6′)-Ii [1]) | Ki (AAC(6′)-Ii [1]; [3]) [µM] | Ki (AAC(6′)-Ii [1]; [4]) [µM] | Vm (AAC(6′)-Ii [1]; Table 1) [µM/s] | enhanced inhibition of AAC(6′)-Ii as compared to lysine-CoA conjugates (3a and 3b) (AAC(6′)-Ii [1]) [fold] | Km (AAC(6′)-Ii [2]) [µM] | type of inhibition (in words) (AAC(6′)-Ii [1]; listed as 10)
CC(C)(COP(=O)(O)OP(=O)(O)OCC1OC(n2cnc3c(N)ncnc32)C(O)C1OP(=O)(O)O)C(O)C(=O)NCCC(=O)NCCSCCCC(=O)NCC1OC(OC2C(N)CC(N)C(O)C2O)C(N)C(O)C1O (centres unmarked) [Compound 10c] | submicromolar range | 0.161 ± 0.098 | potent competitive inhibitors | near submicromolar | 2.1 ± 0.3 |  |  |  |  |  |  | 
COC(=O)C(CCCCNC(=O)CSCCNC(=O)CCNC(=O)C(O)C(C)(C)COP(=O)(O)OP(=O)(O)OCC1OC(n2cnc3c(N)ncnc32)C(O)C1OP(=O)(O)O)NC(C)=O (centres unmarked) [Compound 3a] |  |  | moderate competitive inhibition |  |  | moderate inhibition | ≥ 130 | 130 |  |  |  | 
CC(C)(COP(=O)(O)OP(=O)(O)OCC1OC(n2cnc3c(N)ncnc32)C(O)C1OP(=O)(O)O)C(O)C(=O)NCCC(=O)NCCSCC(=O)NCC1OC(OC2C(N)CC(N)C(O)C2OC2OC(CO)C(O)C2O)C(N)C(O)C1O (centres unmarked) [Compound 12] |  | 0.119 ± 0.014 | competitive inhibition versus acetylCoA |  | 1.1 ± 0.1 |  | 0.119 ± 0.014 |  | 0.14 ± 0.04 | 500 |  | 
CC(C)(COP(=O)(O)OP(=O)(O)OCC1OC(n2cnc3c(N)ncnc32)C(O)C1OP(=O)(O)O)C(O)C(=O)NCCC(=O)NCCSCCC(=O)NCC1OC(OC2C(N)CC(N)C(O)C2O)C(N)C(O)C1O (centres unmarked) [Compound 10b] | submicromolar range | 0.043 ± 0.023 | potent competitive inhibitors | near submicromolar | 1.89 ± 0.3 | highest inhibition among all the inhibitors |  |  |  |  |  | 
CC(C)(COP(=O)(O)OP(=O)(O)OCC1OC(n2cnc3c(N)ncnc32)C(O)C1OP(=O)(O)O)C(O)C(=O)NCCC(=O)NCCSCCCCC(=O)NCC1OC(OC2C(N)CC(N)C(O)C2O)C(N)C(O)C1O (centres unmarked) [Compound 10d] |  | 7.99 ± 2.66 |  | near submicromolar | 1.9 ± 0.3 |  |  |  |  |  |  | 
CC(=O)SCCNC(=O)CCNC(=O)[C@H](O)C(C)(C)COP(=O)(O)OP(=O)(O)OC[C@H]1O[C@@H](n2cnc3c(N)ncnc32)[C@H](O)[C@@H]1OP(=O)(O)O [acetyl CoA, Acetyl Coenzyme A] |  |  |  |  |  |  |  |  |  |  | 23.5 | 
COC(=O)C(CCCCNC(=O)CCSCCNC(=O)CCNC(=O)C(O)C(C)(C)COP(=O)(O)OP(=O)(O)OCC1OC(n2cnc3c(N)ncnc32)C(O)C1OP(=O)(O)O)NC(C)=O (centres unmarked) [Compound 3b] |  |  | moderate competitive inhibition |  |  | moderate inhibition | ≥ 30 | 30 |  |  |  | 
CC(C)(COP(=O)(O)OP(=O)(O)OCC1OC(n2cnc3c(N)ncnc32)C(O)C1OP(=O)(O)O)C(O)C(=O)NCCC(=O)NCCSCC(=O)NCC1OC(OC2C(N)CC(N)C(O)C2O)C(N)C(O)C1O (centres unmarked) [Compound 10a] | submicromolar range | 0.076 ± 0.025 | potent competitive inhibitors | near submicromolar | 2.76 ± 0.4 |  | 0.076 ± 0.025 |  | 0.15 ± 0.01 | 500 |  | competitive inhibition versus acetylCoA

From US7626005B2, “Inhibitors of aminoglycoside 6′-N-acetyltransferases, compositions and uses thereof” (priority 2005, dated 2009)
